This note sets out measurements from patent publication US20230144459A1, “SHEDDING BLOCKING AGENTS WITH INCREASED STABILITY” (BIOND BIOLOGICS LTD., priority 2020, published 2023).

The assay concerns the target T1, human CD28 (shedding of sCD28 from cells) (Homo sapiens, UniProt P10747).
T1 construct: endogenous in cells; host or cells: CD4 T cells and PBMCs from fresh blood of healthy donors
Nature of the assay: Inhibition of CD28 shedding in stimulated lymphocytes (CD4 with PHA and IL-2 or PBMCs with SEB). Format: cell-based. The following applies: percent of soluble CD28 reduction from basal stimulation; constructs and isotype 3 μM, MMPi TMI-1 1 μM.

T1 sequence (P10747 19-220): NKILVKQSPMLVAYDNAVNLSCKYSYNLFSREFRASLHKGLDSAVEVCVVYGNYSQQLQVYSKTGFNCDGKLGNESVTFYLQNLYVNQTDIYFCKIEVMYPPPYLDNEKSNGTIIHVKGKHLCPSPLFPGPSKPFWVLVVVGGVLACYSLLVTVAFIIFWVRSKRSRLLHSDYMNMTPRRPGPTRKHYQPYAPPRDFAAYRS

In the case of `CC#CCOc1ccc(S(=O)(=O)N2CCSC(C)(C)[C@@H]2C(=O)NO)cc1` [MMPi, TMI-1, reference compound], the “Inhibition (%) of CD28 shedding” value came to 60.5%.
